The supplement of paper PMC10307832

How the values were obtained:
Assay in all cases: relative viability (nuclei count vs DMSO), 5 days (fraction); higher = more cells survive
[1] = tested on: NCI-H1915
How it was run: (§1)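 Relative viability equals treated-well nuclei counts divided by vehicle-well nuclei counts. Counts came from 4× images of lung cancer cell lines grown in 1536-well plates for 5 days after pin-tool dosing on the day after seeding. Dosing used one drug alone or a fixed anchor-drug dose plus five library-drug doses (not always all listed) in √10 steps, and values are medians of duplicate plates.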

[2] = tested on: NCI-H2347
How it was run: as §1

[3] = tested on: NCI-H2126
How it was run: as §1

[4] = tested on: HCC-15
How it was run: as §1

[5] = tested on: NCI-H460
How it was run: as §1

[6] = tested on: HOP-62
How it was run: as §1

[7] = tested on: NCI-H1975
How it was run: as §1

[8] = tested on: PC-3 [JPC-3]
How it was run: as §1

[9] = tested on: A-427
How it was run: as §1

[10] = tested on: SW 1573
How it was run: as §1

[11] = tested on: NCI-H1792
How it was run: as §1

[12] = tested on: HCC-78
How it was run: as §1

[13] = tested on: NCI-H2342
How it was run: as §1

[14] = tested on: LC-2-ad
How it was run: as §1

[15] = tested on: RERF-LC-KJ
How it was run: as §1

[16] = tested on: LXF-289
How it was run: as §1

[17] = tested on: NCI-H358
How it was run: as §1

[18] = tested on: LOU-NH91
How it was run: as §1

[19] = tested on: NCI-H1755
How it was run: as §1

[20] = tested on: NCI-H1734
How it was run: as §1

[21] = tested on: NCI-H647
How it was run: as §1

[22] = tested on: SK-LU-1
How it was run: as §1

O=C(O)c1ccc(-c2c[nH]c3ncc(-c4ccccc4)cc23)cc1C1CCCC1 + Nc1ncn([C@H]2C[C@H](O)[C@@H](CO)O2)c(=O)n1 [Decitabine] (partner 2 µM) was tested. Which relative viability ([1]; first compound 0.04 µM) did it give?
The relative viability was 0.241.

And the relative viability ([1]; first compound 0.1265 µM)?
The relative viability was 0.229.

What about the relative viability ([1]; first compound 0.4 µM) of the same molecule?
Its relative viability is 0.259.

And the relative viability ([1]; first compound 1.265 µM)?
Its relative viability is 0.251.

And the relative viability ([2]; first compound 0.04 µM)?
Its relative viability is 0.609.

And the relative viability ([2]; first compound 0.1265 µM)?
The relative viability was 0.603.

What about the relative viability ([2]; first compound 0.4 µM) of the same molecule?
The relative viability was 0.647.

And the relative viability ([2]; first compound 1.265 µM)?
The relative viability was 0.582.

What about the relative viability ([3]; first compound 0.04 µM) of the same molecule?
Its relative viability is 0.585.

And the relative viability ([3]; first compound 0.1265 µM)?
The relative viability was 0.621.

What about the relative viability ([3]; first compound 0.4 µM) of the same molecule?
Its relative viability is 0.466.

And the relative viability ([3]; first compound 1.265 µM)?
The relative viability was 0.569.

And the relative viability ([4]; first compound 0.04 µM)?
The relative viability was 0.641.

What about the relative viability ([4]; first compound 0.1265 µM) of the same molecule?
The relative viability was 0.673.

What about the relative viability ([4]; first compound 0.4 µM) of the same molecule?
Its relative viability is 0.608.

What about the relative viability ([4]; first compound 1.265 µM) of the same molecule?
The relative viability was 0.381.

What about the relative viability ([5]; first compound 0.04 µM) of the same molecule?
The relative viability was 0.521.

And the relative viability ([5]; first compound 0.1265 µM)?
The relative viability was 0.531.

What about the relative viability ([5]; first compound 0.4 µM) of the same molecule?
Its relative viability is 0.468.

What about the relative viability ([5]; first compound 1.265 µM) of the same molecule?
Its relative viability is 0.459.

What about the relative viability ([6]; first compound 0.04 µM) of the same molecule?
Its relative viability is 0.166.

What about the relative viability ([6]; first compound 0.1265 µM) of the same molecule?
The relative viability was 0.241.

What about the relative viability ([6]; first compound 0.4 µM) of the same molecule?
The relative viability was 0.203.

And the relative viability ([6]; first compound 1.265 µM)?
The relative viability was 0.239.

And the relative viability ([7]; first compound 0.04 µM)?
The relative viability was 0.393.

And the relative viability ([7]; first compound 0.1265 µM)?
The relative viability was 0.447.

And the relative viability ([7]; first compound 0.4 µM)?
The relative viability was 0.554.

And the relative viability ([7]; first compound 1.265 µM)?
Its relative viability is 0.376.

What about the relative viability ([8]; first compound 0.04 µM) of the same molecule?
The relative viability was 0.824.

What about the relative viability ([8]; first compound 0.1265 µM) of the same molecule?
The relative viability was 0.835.

And the relative viability ([8]; first compound 0.4 µM)?
The relative viability was 0.939.

What about the relative viability ([8]; first compound 1.265 µM) of the same molecule?
Its relative viability is 0.74.

And the relative viability ([9]; first compound 0.04 µM)?
The relative viability was 0.59.

And the relative viability ([9]; first compound 0.1265 µM)?
The relative viability was 0.594.

What about the relative viability ([9]; first compound 0.4 µM) of the same molecule?
The relative viability was 0.5.

And the relative viability ([9]; first compound 1.265 µM)?
The relative viability was 0.475.

What about the relative viability ([10]; first compound 0.04 µM) of the same molecule?
Its relative viability is 0.403.

What about the relative viability ([10]; first compound 0.1265 µM) of the same molecule?
The relative viability was 0.546.

And the relative viability ([10]; first compound 0.4 µM)?
The relative viability was 0.505.

What about the relative viability ([10]; first compound 1.265 µM) of the same molecule?
Its relative viability is 0.407.

What about the relative viability ([11]; first compound 0.04 µM) of the same molecule?
The relative viability was 0.515.

And the relative viability ([11]; first compound 0.1265 µM)?
The relative viability was 0.51.

What about the relative viability ([11]; first compound 0.4 µM) of the same molecule?
Its relative viability is 0.543.

And the relative viability ([11]; first compound 1.265 µM)?
Its relative viability is 0.457.

And the relative viability ([12]; first compound 0.1265 µM)?
Its relative viability is 0.862.

What about the relative viability ([12]; first compound 0.4 µM) of the same molecule?
Its relative viability is 0.859.

What about the relative viability ([12]; first compound 1.265 µM) of the same molecule?
The relative viability was 0.622.

What about the relative viability ([13]; first compound 0.04 µM) of the same molecule?
Its relative viability is 0.724.

What about the relative viability ([13]; first compound 0.1265 µM) of the same molecule?
The relative viability was 0.663.

What about the relative viability ([13]; first compound 0.4 µM) of the same molecule?
The relative viability was 0.836.

What about the relative viability ([13]; first compound 1.265 µM) of the same molecule?
The relative viability was 0.731.

And the relative viability ([14]; first compound 0.04 µM)?
Its relative viability is 0.718.

What about the relative viability ([14]; first compound 0.1265 µM) of the same molecule?
The relative viability was 0.756.

And the relative viability ([14]; first compound 0.4 µM)?
Its relative viability is 0.737.

And the relative viability ([14]; first compound 1.265 µM)?
Its relative viability is 0.651.

And the relative viability ([15]; first compound 0.04 µM)?
Its relative viability is 0.718.

And the relative viability ([15]; first compound 0.1265 µM)?
Its relative viability is 0.718.

And the relative viability ([15]; first compound 0.4 µM)?
Its relative viability is 0.596.

What about the relative viability ([15]; first compound 1.265 µM) of the same molecule?
The relative viability was 0.468.

What about the relative viability ([16]; first compound 0.04 µM) of the same molecule?
The relative viability was 0.352.

And the relative viability ([16]; first compound 0.1265 µM)?
Its relative viability is 0.355.

What about the relative viability ([16]; first compound 0.4 µM) of the same molecule?
Its relative viability is 0.361.

What about the relative viability ([16]; first compound 1.265 µM) of the same molecule?
Its relative viability is 0.302.

And the relative viability ([17]; first compound 0.04 µM)?
The relative viability was 0.193.

And the relative viability ([17]; first compound 0.1265 µM)?
The relative viability was 0.218.

And the relative viability ([17]; first compound 0.4 µM)?
Its relative viability is 0.172.

And the relative viability ([17]; first compound 1.265 µM)?
Its relative viability is 0.115.

And the relative viability ([18]; first compound 0.04 µM)?
The relative viability was 0.815.

What about the relative viability ([18]; first compound 0.1265 µM) of the same molecule?
The relative viability was 0.859.

And the relative viability ([18]; first compound 0.4 µM)?
The relative viability was 0.832.

What about the relative viability ([18]; first compound 1.265 µM) of the same molecule?
The relative viability was 0.718.

What about the relative viability ([19]; first compound 0.04 µM) of the same molecule?
Its relative viability is 0.699.

And the relative viability ([19]; first compound 0.1265 µM)?
The relative viability was 0.753.

And the relative viability ([19]; first compound 0.4 µM)?
The relative viability was 0.713.

What about the relative viability ([19]; first compound 1.265 µM) of the same molecule?
The relative viability was 0.705.

And the relative viability ([20]; first compound 0.04 µM)?
The relative viability was 0.528.

What about the relative viability ([20]; first compound 0.1265 µM) of the same molecule?
Its relative viability is 0.499.

And the relative viability ([20]; first compound 0.4 µM)?
Its relative viability is 0.461.

What about the relative viability ([20]; first compound 1.265 µM) of the same molecule?
Its relative viability is 0.437.

What about the relative viability ([21]; first compound 0.04 µM) of the same molecule?
Its relative viability is 0.535.

And the relative viability ([21]; first compound 0.1265 µM)?
The relative viability was 0.409.

And the relative viability ([21]; first compound 0.4 µM)?
Its relative viability is 0.388.

What about the relative viability ([21]; first compound 1.265 µM) of the same molecule?
Its relative viability is 0.283.

What about the relative viability ([22]; first compound 0.04 µM) of the same molecule?
Its relative viability is 0.633.

What about the relative viability ([22]; first compound 0.1265 µM) of the same molecule?
The relative viability was 0.587.

And the relative viability ([22]; first compound 0.4 µM)?
Its relative viability is 0.592.

What about the relative viability ([22]; first compound 1.265 µM) of the same molecule?
The relative viability was 0.508.
